Results on 13 compounds are retold here after patent US7415358B2, “Molecular toxicology modeling” (Ocimum Biosolutions, Inc., priority 2001, dated 2008).

The conditions of data set [1]: male Wistar rats, daily doses within human therapeutic range; cited from earlier work.
For data set [2] the following is noted: treatment 2 to 25 years; cited from earlier work.
The test system of data set [3] is angiotensin converting enzyme (ACE). The following applies: rats, 20, 25, and 30 days post-treatment; cited from earlier work.
For data set [4] the following is noted: rat, in vivo, 65 mg/kg; cited from earlier work.
The subject of a further data set is renal cortex. The following applies: cited from earlier work.
The next data set concerns glutathione reductase. The following applies: cited from earlier work.
The nature of data set [5]: Clinical chemistry of the dosed rats. In kind it is in vivo. The following applies: rats given the high dosage.
A further data set has as its system rat hepatocytes. The following applies: cited from earlier work.
The conditions of data set [6]: rat, in vivo; cited from earlier work.
Data set [7] relates to glomerular epithelial cell. The following applies: rat, in vivo; cited from earlier work.
For data set [8] the following is noted: CMV patients; cited from earlier work.
For data set [9] the following is noted: rats fed hydralazine, compared to control groups; cited from earlier work.
The conditions of data set [10]: in vivo; cited from earlier work.
For data set [11] the following is noted: rabbit, in vivo; cited from earlier work.
The conditions of data set [12]: rats and mice, varying doses; cited from earlier work.
For data set [13] the following is noted: four HIV-positive patients treated for toxoplasmosis; cited from earlier work.
For data set [14] the following is noted: rats, cited from earlier work.
For data set [15] the following is noted: rats, began on day 3; cited from earlier work.

Read-outs that look alike come from different tables or passages of the source.

LITHIUMCHLORIDE: the polyuria entry in [1] was “marked polyuria within three weeks”. Moreover, in data set [2], the “patients with nephrogenic diabetes insipidus (NDI)” value was around 90% and the “patients with nephrotic proteinuria” value is listed as “Approximately one fourth”. Regarding `COc1cccc2c1C(=O)c1c(O)c3c(c(O)c1C2=O)C[C@@](O)(C(=O)CO)C[C@@H]3O[C@H]1C[C@H](N)[C@H](O)[C@H](C)O1` [ADR], the “serum ACE levels” value in data set [3] is recorded as “serum ACE levels were significantly elevated”.

With `N.N.O=C([O-])C1(C(=O)[O-])CCC1.[Pt+2]` [CARBOPLATIN], the CGT excretion entry in [4] was “increased approximately two-fold”. In the case of `O=C(Cc1cccs1)N[C@@H]1C(=O)N2C(C(=O)[O-])=C(C[n+]3ccccc3)CS[C@H]12` [CEPHALORIDINE], the “reduced glutathione (GSH) in the renal cortex” value with renal cortex was “depleted reduced glutathione (GSH)”. Also, in the data set on glutathione reductase, the glutathione reductase activity result was “inhibited glutathione reductase”. In the case of `O=C(O)c1cc(-c2ccc(F)cc2F)ccc1O` [DIFLUNISAL], in data set [5], the concentrations of creatinine result is “increased concentrations of creatinine”. Also, the LDH leakage entry in the data set with rat hepatocytes (500 μM, compared to control) is listed as “increase LDH leakage”. Moreover, the “intracellular ATP concentrations” value in the data set on rat hepatocytes was “decreased intracellular ATP concentrations”. `CN(C)c1ncnc2c1ncn2[C@@H]1O[C@H](CO)[C@@H](N)[C@H]1O` [PAN, puromycin aminonucleoside]: in [6], the proteinuria result is listed as “led to proteinuria”. Also, the “glomerular epithelial cell apoptosis” value in data set [7] was “induced glomerular epithelial cell apoptosis”. As for `Nc1ccn(C[C@@H](CO)OCP(=O)(O)O)c(=O)n1` [CIDOFOVIR], in data set [8], the “patients with dose-dependent asymptomatic proteinuria” value is given as “Approximately 40%” and the “patients with elevated serum creatinine levels” value is 25%.

Take `NNc1nncc2ccccc12` [HYDRALAZINE]: the kidney copper concentrations result in data set [9] is on record as “kidney copper concentrations were increased”. In the case of “9-[(2-hydroxyethyl) methyl] guanine [ACYCLOVIR]”, the excretion result in [10] is reported as “most of it is excreted in the urine largely unchanged”.

For `CC1=C2C(=CO[C@H](C)[C@H]2C)C(O)=C(C(=O)O)C1=O` [CITRININ], the “creatinine clearance, blood urea nitrogen, serum creatinine (renal failure)” value in [11] was “decreased creatinine clearance and increased blood urea nitrogen and serum-creatinine levels”. Turning to `NCCC(O)(P(=O)(O)O)P(=O)(O)O` [PAMIDRONATE], in data set [12], the “body weight and creatinine clearance” value was “significant weight loss and a decrease in creatinine clearance”. Consider `Nc1ccc(S(=O)(=O)Nc2ncccn2)cc1` [SULFADIAZINE], for which, in data set [13], the “clinical renal adverse findings” value is given as “developed oliguria, abdominal pain, renal failure”. As to `N.N.[Cl][Pt][Cl]` [CISPLATIN, Pt(NH3)2(Cl)2], the BUN entry was “six or seven-fold elevation in BUN” in data set [14] (day 2, high-dose groups (10-15 mg/kg)) and “BUN elevation was noted” in [14] (day 4, 5 mg/kg group). Further, in data set [15], the serum creatinine levels result is “elevations in serum creatinine levels”.
